From the supplement of paper PMC10307832

Experiments:
Assay in all cases: relative viability (nuclei count vs DMSO), 5 days (fraction); higher = more cells survive
[1] = compound: C1CNCCC1C2=CC(=NN2)C3=CC=NC=C3 + Cc1cc(Nc2cc(N3CCN(C)CC3)nc(Sc3ccc(NC(=O)C4CC4)cc3)n2)n[nH]1 [Tozasertib] (partner 0.1 µM)
Procedure, shortened: (§1)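 Relative viability divides the nuclei count in treated wells by that in vehicle wells. Lung cancer cell lines were seeded in 1536-well plates, dosed by pin tool the next day, and fixed and stained after 5 days in one step with final 0.05% Triton X-100, 1% formaldehyde and 1 ug/ml Hoechst. Dosing was a single drug or a fixed anchor-drug dose plus five library-drug doses (not always all listed) in √10 steps, and values are medians of duplicate plates imaged at 4×.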

[2] = compound: C[C@@H](N)c1ccc(C(=O)Nc2ccnc3[nH]ccc23)cc1 + C[C@]1(O)C[C@@H](c2nc(-c3ccc4ccc(-c5ccccc5)nc4c3)c3c(N)nccn32)C1 [Linsitinib] (partner 1 µM)
Procedure, shortened: as §1

[3] = compound: C[C@@H](N)c1ccc(C(=O)Nc2ccnc3[nH]ccc23)cc1 + N=C(N)NC(=N)NCCc1ccccc1 [Phenformin] (partner 250 µM)
Procedure, shortened: as §1

[4] = compound: C1CNCCC1C2=CC(=NN2)C3=CC=NC=C3 + O=C(c1cc(Cc2n[nH]c(=O)c3ccccc23)ccc1F)N1CCN(C(=O)C2CC2)CC1 [Olaparib] (partner 8 µM)
Procedure, shortened: as §1

Cell Line	relative viability ([1]; first compound 0.08 µM)	relative viability ([1]; first compound 0.8 µM)	relative viability ([1]; first compound 2.53 µM)	relative viability ([1]; first compound 8 µM)	relative viability ([2]; first compound 0.04 µM)	relative viability ([2]; first compound 0.1265 µM)	relative viability ([2]; first compound 0.4 µM)	relative viability ([2]; first compound 1.265 µM)	relative viability ([2]; first compound 4 µM)	relative viability ([3]; first compound 0.04 µM)	relative viability ([3]; first compound 0.1265 µM)	relative viability ([3]; first compound 0.4 µM)	relative viability ([3]; first compound 1.265 µM)	relative viability ([3]; first compound 4 µM)	relative viability ([4]; first compound 0.08 µM)	relative viability ([4]; first compound 0.8 µM)	relative viability ([4]; first compound 2.53 µM)	relative viability ([4]; first compound 8 µM)
SK-LU-1	0.321	0.367	0.391	0.334	1.09	1.1	1.19	0.956	0.637	0.433	0.611	0.488	0.365	0.405	0.437	0.425	0.467	0.439
LOU-NH91	0.673	0.648	0.696	0.58	0.831	0.979	0.778	0.726	0.702	0.589	0.628	0.672	0.28	0.646	0.927	0.963	0.974	0.877
LXF-289	0.219	0.196	0.178	0.207	1.02	0.995	0.997	1.09	0.88	0.509	0.524	0.525	0.569	0.496	1.04	1.16	0.968	1.05
NCI-H1299	–	–	–	–	0.945	0.977	0.939	0.956	0.85	–	–	–	–	–	1.03	0.97	0.946	0.91
HARA	0.12	0.0979	0.11	0.0912	1.09	1.06	1.15	0.996	0.521	–	0.481	0.495	–	0.355	0.762	1.27	1.21	1.11
LU99A	0.307	0.267	0.278	0.304	0.607	0.569	0.586	0.617	0.509	–	0.924	0.768	0.605	0.635	0.257	0.259	0.269	0.314
201T	0.944	0.944	0.893	0.951	1.14	1.02	1.07	1.11	1.16	0.427	0.442	0.462	0.428	0.473	0.832	0.863	0.832	0.858
HCC-827	0.389	0.435	0.453	0.432	0.972	0.94	0.911	0.925	0.843	0.424	0.462	0.423	0.394	0.406	0.597	0.0303	0.665	0.743
